Reference: patent publication US10160747B2, “Compounds and methods for kinase modulation, and indications therefor” (Plexxikon Inc., priority 2016, dated 2018)

Legend:
[1] = test system: MOLM-14 F691L (endogenous FLT3 ITD and transfected FLT3 F691L); assay: MOLM-14 F691L cell proliferation assay (CellTiter-Glo); type: cell-based; details: Homo sapiens, MOLM-14, 72 h; 3 d growth, GMean
How it was run: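 MOLM-14 cells (FLT3 ITD) carrying D835Y or F691L, 1×10^4 cells/well, eight 1:3 dilutions from 1 μM final, 0.2% DMSO, 3 days at 37 °C, 5% CO2. Viability by CellTiter-Glo luminescence (ATP content); IC50 from concentration-response.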

BA/F3-FLT3-ITD + D835Y = target: T1, BA/F3-FLT3-ITD + D835Y (Homo sapiens, UniProt P36888, D835Y, cells depend on it, form not given); assay: Engineered BA/F3 cell growth assay, FLT3 ITD/D835Y; type: cell-based, murine; details: 3 d growth
T1 sequence (P36888 with tags, fused parts or gaps INS600HVDFREYEYD/D835Y): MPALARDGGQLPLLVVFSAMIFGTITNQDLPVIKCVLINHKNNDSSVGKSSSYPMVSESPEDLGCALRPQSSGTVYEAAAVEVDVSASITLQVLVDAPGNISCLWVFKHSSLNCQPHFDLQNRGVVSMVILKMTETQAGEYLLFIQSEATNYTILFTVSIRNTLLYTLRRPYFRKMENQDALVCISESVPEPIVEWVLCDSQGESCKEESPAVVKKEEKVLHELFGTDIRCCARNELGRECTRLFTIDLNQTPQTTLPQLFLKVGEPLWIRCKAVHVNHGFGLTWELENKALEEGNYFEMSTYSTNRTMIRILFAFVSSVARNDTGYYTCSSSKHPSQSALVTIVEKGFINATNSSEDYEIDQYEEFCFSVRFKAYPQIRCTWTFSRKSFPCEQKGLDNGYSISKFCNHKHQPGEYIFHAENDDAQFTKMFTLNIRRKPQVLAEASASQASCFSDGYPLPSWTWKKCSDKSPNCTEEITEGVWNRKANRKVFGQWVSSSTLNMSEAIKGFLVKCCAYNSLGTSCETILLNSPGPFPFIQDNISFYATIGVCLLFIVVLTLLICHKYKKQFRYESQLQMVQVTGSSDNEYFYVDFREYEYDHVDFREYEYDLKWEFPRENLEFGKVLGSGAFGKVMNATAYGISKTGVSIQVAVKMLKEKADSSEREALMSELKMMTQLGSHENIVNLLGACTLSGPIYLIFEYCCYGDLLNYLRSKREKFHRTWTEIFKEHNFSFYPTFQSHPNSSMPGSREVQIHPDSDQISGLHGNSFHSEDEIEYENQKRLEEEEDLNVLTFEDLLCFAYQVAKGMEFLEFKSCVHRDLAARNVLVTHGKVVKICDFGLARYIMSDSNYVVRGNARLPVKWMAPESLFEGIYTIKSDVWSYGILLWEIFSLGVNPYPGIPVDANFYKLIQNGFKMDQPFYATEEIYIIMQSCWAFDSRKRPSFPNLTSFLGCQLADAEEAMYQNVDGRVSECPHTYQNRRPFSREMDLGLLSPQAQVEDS
How it was run: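 IC50 derived from CellTiter-Glo ATP luminescence after 3 days at 37 °C, 5% CO2, over eight 1:3 dilutions from 1 μM (0.2% DMSO final). Cells: IL-3-independent murine Ba/F3 expressing full-length FLT3 ITD/D835Y, 1×10^4 per well.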

Structure (SMILES) | IC50 [1] [µM] | GI50 (BA/F3-FLT3-ITD + D835Y) [µM]
O=C(Cc1ccc(-c2cnc3[nH]c(-c4cnn(C(F)F)c4)cc3c2)c(F)c1)Nc1cncc(C(F)(F)F)c1 [Compound P-0197, 2-[4-[2-[1-(difluoromethyl)pyrazol-4-yl]-1H-pyrrolo[2,3-b]pyridin-5-yl]-3-fluoro-phenyl]-N-[5-(trifluoromethyl)-3-pyridyl]acetamide] | 0.0001 to 10 | 0.0001 to 10
N#Cc1cc(-c2cc3cc(-c4ccc(CC(=O)Nc5cncc(C(F)(F)F)c5)cc4F)cnc3[nH]2)ccn1 [Compound P-0199, 2-[4-[2-(2-cyano-4-pyridyl)-1H-pyrrolo[2,3-b]pyridin-5-yl]-3-fluoro-phenyl]-N-[5-(trifluoromethyl)-3-pyridyl]acetamide] | 0.0001 to 10 | 0.0001 to 10
COc1ncc(NC(=O)Cc2ccc(-c3cnc(Nc4cn(C)cn4)nc3)cc2F)cc1C(F)(F)F [Compound P-0101, 2-[2-fluoro-4-[2-[(1-methylimidazol-4-yl)amino]pyrimidin-5-yl]phenyl]-N-[6-methoxy-5-(trifluoromethyl)-3-pyridyl]acetamide] | 0.0001 to 10 | 0.0001 to 10
Cn1cc(Nc2ncc(-c3ccc(CC(=O)Nc4ccc(C(F)(F)F)nc4)c(F)c3)cn2)cn1 [Compound P-0110, 2-[2-fluoro-4-[2-[(1-methylpyrazol-4-yl)amino]pyrimidin-5-yl]phenyl]-N-[6-(trifluoromethyl)-3-pyridyl]acetamide] | 0.0001 to 10 | 0.0001 to 10
Cn1cc(Nc2ncc(-c3ccc(CC(=O)Nc4cccnc4)cc3)cn2)cn1 [Compound P-0131, 2-[4-[2-[(1-methylpyrazol-4-yl)amino]pyrimidin-5-yl]phenyl]-N-(3-pyridyl)acetamide] | 0.0001 to 10 | 0.0001 to 10
Cn1cnc(Nc2ncc(-c3ccc(CC(=O)Nc4cncc(C(F)(F)F)c4)cc3)cn2)c1 [Compound P-0167] | 0.0001 to 10 | 0.0001 to 10
COc1ccc(-c2cc3cc(-c4ccc(CC(=O)Nc5cncc(C(F)(F)F)c5)cc4F)cnc3[nH]2)cn1 [Compound P-0196, 2-[3-fluoro-4-[2-(6-methoxy-3-pyridyl)-1H-pyrrolo[2,3-b]pyridin-5-yl]phenyl]-N-[5-(trifluoromethyl)-3-pyridyl]acetamide] | 0.0001 to 10 | 0.0001 to 10
Cn1cc(Nc2ncc(-c3ccc(CC(=O)Nc4cc(C(F)(F)F)ncn4)cc3)cn2)cn1 [Compound P-0135, 2-[4-[2-[(1-methylpyrazol-4-yl)amino]pyrimidin-5-yl]phenyl]-N-[6-(trifluoromethyl)pyrimidin-4-yl]acetamide] | 0.0001 to 10 | 0.0001 to 10
Cn1cnc(Nc2ncc(-c3ccc(CC(=O)Nc4cc(C(C)(F)F)ccn4)cc3)cn2)c1 [Compound P-0169, N-[4-(1,1-difluoroethyl)-2-pyridyl]-2-[4-[2-[(1-methylimidazol-4-yl)amino]pyrimidin-5-yl]phenyl]acetamide] | 0.0001 to 10 | 0.0001 to 10
Cn1cc(Nc2ncc(-c3ccc(CC(=O)Nc4ccc(C(F)(F)F)nc4)cc3)cn2)cn1 [Compound P-0095, 2-[4-[2-[(1-methylpyrazol-4-yl)amino]pyrimidin-5-yl]phenyl]-N-[6-(trifluoromethyl)-3-pyridyl]acetamide] | 0.0001 to 10 | 0.0001 to 10
O=C(Cc1ccc(-c2cnc3[nH]c(-c4ccccc4)cc3c2)cn1)Nc1ccnc(C(F)(F)F)c1 [Compound P-0005, 2-[5-(2-phenyl-1H-pyrrolo[2,3-b]pyridin-5-yl)-2-pyridyl]-N-[2-(trifluoromethyl)-4-pyridyl]acetamide] | 0.0001 to 10 | 0.0001 to 10
N#Cc1cc(-c2cc3cc(-c4ccc(CC(=O)Nc5ccnc(C(F)(F)F)c5)nc4)cnc3[nH]2)ccn1 [Compound P-0182, 2-[5-[2-(2-cyano-4-pyridyl)-1H-pyrrolo[2,3-b]pyridin-5-yl]-2-pyridyl]-N-[2-(trifluoromethyl)-4-pyridyl]acetamide] | 0.0001 to 10 | 0.0001 to 10
Cn1cc(Nc2ncc(-c3ccc(CC(=O)Nc4ccnc(C5CC5)c4)c(F)c3)cn2)cn1 [Compound P-0098, N-(2-cyclopropyl-4-pyridyl)-2-[2-fluoro-4-[2-[(1-methylpyrazol-4-yl)amino]pyrimidin-5-yl]phenyl]acetamide] | 0.0001 to 10 | 0.0001 to 10
Cn1cc(Nc2ncc(-c3ccc(CC(=O)Nc4cccc(C(C)(C)C#N)c4)cc3)cn2)cn1 [Compound P-0158, N-[3-(1-cyano-1-methyl-ethyl)phenyl]-2-[4-[2-[(1-methylpyrazol-4-yl)amino]pyrimidin-5-yl]phenyl]acetamide] | 0.0001 to 10 | 0.0001 to 10
Cn1cc(Nc2ncc(-c3ccc(CC(=O)Nc4ccc(C(C)(C)C)nc4)cc3)cn2)cn1 [Compound P-0143, N-(6-tert-butyl-3-pyridyl)-2-[4-[2-[(1-methylpyrazol-4-yl)amino]pyrimidin-5-yl]phenyl]acetamide] | 0.0001 to 10 | 0.0001 to 10
Cn1cc(Nc2ncc(-c3ccc(CC(=O)Nc4cnc(Cl)c(C(F)(F)F)c4)cc3)cn2)cn1 [Compound P-0145, N-[6-chloro-5-(trifluoromethyl)-3-pyridyl]-2-[4-[2-[(1-methylpyrazol-4-yl)amino]pyrimidin-5-yl]phenyl]acetamide] | 0.0001 to 10 | 0.0001 to 10
Cn1cc(Nc2ncc(-c3ccc(CC(=O)Nc4ccnc(S(C)(=O)=O)c4)cc3)cn2)cn1 [Compound P-0154, 2-[4-[2-[(1-methylpyrazol-4-yl)amino]pyrimidin-5-yl]phenyl]-N-(2-methylsulfonyl-4-pyridyl)acetamide] | 0.0001 to 10 | 0.0001 to 10
Cn1cnc(Nc2ncc(-c3ccc(CC(=O)Nc4cnc(Cl)c(C(F)(F)F)c4)c(F)c3)cn2)c1 [Compound P-0100, N-[6-chloro-5-(trifluoromethyl)-3-pyridyl]-2-[2-fluoro-4-[2-[(1-methylimidazol-4-yl)amino]pyrimidin-5-yl]phenyl]acetamide] | 0.0001 to 10 | 0.0001 to 10
O=C(Cc1ccc(-c2cnc3[nH]c(-c4ccc(N5CCOCC5)nc4)cc3c2)c(F)c1)Nc1cc(C(F)(F)F)ccn1 [Compound P-0192, 2-[3-fluoro-4-[2-(6-morpholino-3-pyridyl)-1H-pyrrolo[2,3-b]pyridin-5-yl]phenyl]-N-[4-(trifluoromethyl)-2-pyridyl]acetamide] | 0.0001 to 10 | 0.0001 to 10
COCCn1cc(Nc2ncc(-c3ccc(CC(=O)Nc4cncc(C(F)(F)F)c4)cc3)cn2)cn1 [Compound P-0178, 2-[4-[2-[[1-(2-methoxyethyl)pyrazol-4-yl]amino]pyrimidin-5-yl]phenyl]-N-[5-(trifluoromethyl)-3-pyridyl]acetamide] | 0.0001 to 10 | 0.0001 to 10
Cn1cnc(Nc2ncc(-c3ccc(CC(=O)Nc4cnc(F)c(C(C)(F)F)c4)cc3)cn2)c1 [Compound P-0168, N-[5-(1,1-difluoroethyl)-6-fluoro-3-pyridyl]-2-[4-[2-[(1-methylimidazol-4-yl)amino]pyrimidin-5-yl]phenyl]acetamide] | 0.0001 to 10 | 0.0001 to 10
Cc1ncc(NC(=O)Cc2ccc(-c3cnc(Nc4cn(C)cn4)nc3)cc2)cc1C(F)(F)F [Compound P-0150, 2-[4-[2-[(1-methylimidazol-4-yl)amino]pyrimidin-5-yl]phenyl]-N-[6-methyl-5-(trifluoromethyl)-3-pyridyl]acetamide] | 0.0001 to 10 | 0.0001 to 10
Cn1cnc(Nc2ncc(-c3ccc(CC(=O)Nc4cc(C(F)(F)F)ccn4)c(F)c3)cn2)c1 [Compound P-0096, 2-[2-fluoro-4-[2-[(1-methylimidazol-4-yl)amino]pyrimidin-5-yl]phenyl]-N-[4-(trifluoromethyl)-2-pyridyl]acetamide] | 0.0001 to 10 | 0.0001 to 10
Cn1cc(Nc2ncc(-c3ccc(CC(=O)Nc4ccnc(C(F)(F)F)c4)cc3)cn2)cn1 [Compound P-0134, 2-[4-[2-[(1-methylpyrazol-4-yl)amino]pyrimidin-5-yl]phenyl]-N-[2-(trifluoromethyl)-4-pyridyl]acetamide] | 0.0001 to 10 | 0.0001 to 10
